The subject of one test is A549-ON. Put plainly: A549-ON cell viability / combination index. Type of test: cell-based. The text has this: (§1) The combination index or CI means a value acquired through a calculation based on the Combination Index Theorem. From CI value, the interaction between components within a drug having multiple components can be understood. For example, the CI value quantitatively defines synergism (CI<1), additive effect (CI=1), and antagonism (CI>1) among components.
(§2) The expression fraction affected (Fa) means the fraction affected of a component according to Median-Effect Principle. A CI-Fa plot can be used to define the synergism and antagonism relation between different components.
In a preferable embodiment, A549-ON is chosen as the cancer cell model. A549-ON is incubated with DMC, GEM, CHC/DMC, and CHC/GEM respectively to observe cell viability. In Table 3, DMC and GEM encapsulated by CHC has smaller IC50 comparing to those without CHC encapsulation, providing that an anti-cancer component encapsulated by CHC has higher toxic effect to the cells.
In an embodiment, a plurality of CHC/DMC-GEM having different DMC to GEM ratio including 1:1.2, 1:5, 1:12, and 1:25 are respectively incubated with A549-ON to find a component ratio with better synergistic effect. […]

In a further test the test system is A549. Put plainly: A549 cell viability / combination index. Type of test: cell-based. The settings on record: Homo sapiens.
Text: as §1, §2
In another preferable embodiment, A549 cells, which are selected as cancer cell model, are respectively incubated with DMC, GEM, CHC/DMC, and CHC/GEM. In Table 4, DMC or GEM encapsulated by CHC has smaller IC50 comparing to those without CHC encapsulation, proving that an anti-cancer component encapsulated by CHC has higher toxic effect to the cells.
In an embodiment, a plurality of CHC/DMC-GEM having different DMC to GEM ratios including 1:2.5, 1:5, 1:10, and 1:20 are respectively incubated with A549 to find a drug ratio with better synergistic effect. After calculation, a CI versus Fa plot is shown in FIG. 7 based on the viability of A549 cells. […]

With `COc1cc(/C=C/C(O)=C/C(=O)/C=C/c2ccc(O)cc2)ccc1O` [DMC, Demethoxycurcumin], the IC50 came out at 10 µg/mL in the test with A549-ON and 10.3 µg/mL in the test with A549.
For `Nc1ccn([C@@H]2O[C@H](CO)[C@@H](O)C2(F)F)c(=O)n1` [GEM, Gemcitabine], the 50% inhibitory concentration (IC50) with A549-ON and in the test with A549 was 117 µg/mL each time.

For the origin of these results see patent publication US20180280517A1, “Nanocomposite, a Preparation Method Thereof and Method for Treating Cancer Using the Same” (National Chiao Tung University, priority 2017, published 2018).
